We go through one compound from paper PMC8799717, “Pharmacological targeting PIKfyve and tubulin as an effective treatment strategy for double-hit lymphoma” (Cell Death Discovery, 2022).

Experiment in all cases: biochemical
What all share (parameters): KINOMEscan active-site-directed competition binding panel, 468 kinases, percent of DMSO control at 1 uM
Common to all, as to details: KINOMEscan binding, percent of DMSO control; read-out: Ctrl%

Test [1] has as its target CSNK1G3 (Homo sapiens, UniProt Q9Y6M4).
The target in test [2] is T1, ZAK (Homo sapiens, UniProt Q9NYL2).
T1 construct: gene MAP3K20

For test [3], the target named is T2, ABL1(Q252H)-nonphosphorylated (Homo sapiens, UniProt P00519, Q252H).
T2 construct: nonphosphorylated

Test [4] deals with AAK1 (Homo sapiens, UniProt Q2M2I8).
Sequence of AAK1 (Q2M2I8 whole entry): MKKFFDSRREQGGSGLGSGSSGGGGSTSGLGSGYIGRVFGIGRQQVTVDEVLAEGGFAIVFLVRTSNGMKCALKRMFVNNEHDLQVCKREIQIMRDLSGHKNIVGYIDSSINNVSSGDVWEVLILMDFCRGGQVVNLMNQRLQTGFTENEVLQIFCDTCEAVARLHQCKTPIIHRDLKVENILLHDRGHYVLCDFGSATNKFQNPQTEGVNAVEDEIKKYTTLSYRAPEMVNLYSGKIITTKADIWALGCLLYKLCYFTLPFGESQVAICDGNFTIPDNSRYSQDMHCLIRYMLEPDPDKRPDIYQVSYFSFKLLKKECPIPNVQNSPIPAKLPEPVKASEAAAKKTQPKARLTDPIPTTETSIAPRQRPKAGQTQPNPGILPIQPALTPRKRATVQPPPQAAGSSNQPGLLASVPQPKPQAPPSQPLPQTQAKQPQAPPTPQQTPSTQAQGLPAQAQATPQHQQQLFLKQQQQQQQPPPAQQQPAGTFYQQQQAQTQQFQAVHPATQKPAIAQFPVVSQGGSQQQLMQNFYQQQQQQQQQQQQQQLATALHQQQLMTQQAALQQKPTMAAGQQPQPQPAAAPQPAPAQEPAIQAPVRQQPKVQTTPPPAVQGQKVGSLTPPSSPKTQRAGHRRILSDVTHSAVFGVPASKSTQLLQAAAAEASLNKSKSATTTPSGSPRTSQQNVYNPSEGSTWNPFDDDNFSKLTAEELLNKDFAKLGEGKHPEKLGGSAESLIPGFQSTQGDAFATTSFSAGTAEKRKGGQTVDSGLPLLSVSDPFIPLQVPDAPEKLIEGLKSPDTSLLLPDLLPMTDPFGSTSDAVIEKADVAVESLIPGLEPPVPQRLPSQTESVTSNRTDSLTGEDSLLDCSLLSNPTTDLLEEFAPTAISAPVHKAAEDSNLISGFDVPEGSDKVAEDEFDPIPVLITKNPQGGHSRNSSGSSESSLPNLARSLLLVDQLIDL
The target in test [5] is FGFR2 (Homo sapiens, UniProt P21802).
Test [6] has as its target T3, DCAMKL2 (Homo sapiens, UniProt Q8N568).
T3 construct: gene DCLK2

For test [7], the target named is ACVR2A (Homo sapiens, UniProt P27037).
Test [8] addresses TBK1 (Homo sapiens, UniProt Q9UHD2).
For test [9], the target named is T4, QSK (Homo sapiens, UniProt Q9Y2K2).
T4 construct: gene SIK3

Test [10] addresses T5, RSK4(Kin.Dom.1-N-terminal) (Homo sapiens, UniProt Q9UK32).
T5 construct: gene RPS6KA6; Kin.Dom.1-N-terminal

Test [11] concerns the target MAST1 (Homo sapiens, UniProt Q9Y2H9).
For test [12], the target named is BMPR2 (Homo sapiens, UniProt Q13873).
The target of test [13] is CAMKK2 (Homo sapiens, UniProt Q96RR4).
Test [14] has as its target T6, CDC2L5 (Homo sapiens, UniProt Q14004).
T6 construct: gene CDK13

Test [15] has as its target RIOK1 (Homo sapiens, UniProt Q9BRS2).
In test [16] the target is ALK(C1156Y) (Homo sapiens, UniProt Q9UM73, C1156Y).
Test [17] has as its target T7, RSK4(Kin.Dom.2-C-terminal) (Homo sapiens, UniProt Q9UK32).
T7 construct: gene RPS6KA6; Kin.Dom.2-C-terminal

For test [18], the target named is MAP4K2 (Homo sapiens, UniProt Q12851).
Test [19] deals with FLT3(ITD,D835V) (Homo sapiens, UniProt P36888, D835V/ITD).
Test [20] deals with T8, ADCK3 (Homo sapiens, UniProt Q8NI60).
T8 construct: gene COQ8A

The target of test [21] is SRPK1 (Homo sapiens, UniProt Q96SB4).
The target of test [22] is CLK4 (Homo sapiens, UniProt Q9HAZ1).
Sequence of CLK4 (Q9HAZ1 whole entry): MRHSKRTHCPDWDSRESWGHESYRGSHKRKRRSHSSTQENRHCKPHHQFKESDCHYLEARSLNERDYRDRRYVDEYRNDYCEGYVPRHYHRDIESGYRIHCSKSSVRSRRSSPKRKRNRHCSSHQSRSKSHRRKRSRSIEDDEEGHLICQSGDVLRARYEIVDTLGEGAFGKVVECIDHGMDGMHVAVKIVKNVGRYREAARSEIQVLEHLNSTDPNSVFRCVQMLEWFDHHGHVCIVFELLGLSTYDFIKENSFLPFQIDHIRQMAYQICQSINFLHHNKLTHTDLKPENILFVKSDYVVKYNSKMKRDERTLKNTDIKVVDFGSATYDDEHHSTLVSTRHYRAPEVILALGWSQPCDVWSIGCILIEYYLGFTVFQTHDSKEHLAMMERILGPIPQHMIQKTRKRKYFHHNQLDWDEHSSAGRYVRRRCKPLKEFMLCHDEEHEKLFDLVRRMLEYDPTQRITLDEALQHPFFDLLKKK
Test [23] addresses LATS1 (Homo sapiens, UniProt O95835).

T7 sequence (Q9UK32 whole entry): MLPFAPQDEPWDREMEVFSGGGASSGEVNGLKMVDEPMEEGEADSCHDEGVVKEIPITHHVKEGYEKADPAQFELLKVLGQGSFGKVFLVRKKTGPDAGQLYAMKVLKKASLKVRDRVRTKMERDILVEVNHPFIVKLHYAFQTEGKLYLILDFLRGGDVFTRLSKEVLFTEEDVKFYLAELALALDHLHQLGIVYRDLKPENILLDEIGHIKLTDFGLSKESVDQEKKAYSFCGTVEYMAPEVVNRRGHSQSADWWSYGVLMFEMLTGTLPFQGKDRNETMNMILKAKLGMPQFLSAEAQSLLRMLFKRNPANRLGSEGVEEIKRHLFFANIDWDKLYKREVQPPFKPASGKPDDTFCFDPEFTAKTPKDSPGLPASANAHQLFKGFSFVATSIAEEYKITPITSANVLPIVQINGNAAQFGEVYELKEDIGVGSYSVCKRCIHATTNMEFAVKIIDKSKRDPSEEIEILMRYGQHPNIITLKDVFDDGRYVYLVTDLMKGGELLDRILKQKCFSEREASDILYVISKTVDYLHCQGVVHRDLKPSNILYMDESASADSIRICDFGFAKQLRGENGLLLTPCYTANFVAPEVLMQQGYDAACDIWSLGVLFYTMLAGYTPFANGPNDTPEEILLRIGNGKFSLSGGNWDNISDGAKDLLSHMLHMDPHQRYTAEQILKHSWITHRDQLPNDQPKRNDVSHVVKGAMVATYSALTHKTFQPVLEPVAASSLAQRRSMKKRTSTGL
T5 sequence (Q9UK32 whole entry): as above
Sequence of MAST1 (Q9Y2H9 whole entry): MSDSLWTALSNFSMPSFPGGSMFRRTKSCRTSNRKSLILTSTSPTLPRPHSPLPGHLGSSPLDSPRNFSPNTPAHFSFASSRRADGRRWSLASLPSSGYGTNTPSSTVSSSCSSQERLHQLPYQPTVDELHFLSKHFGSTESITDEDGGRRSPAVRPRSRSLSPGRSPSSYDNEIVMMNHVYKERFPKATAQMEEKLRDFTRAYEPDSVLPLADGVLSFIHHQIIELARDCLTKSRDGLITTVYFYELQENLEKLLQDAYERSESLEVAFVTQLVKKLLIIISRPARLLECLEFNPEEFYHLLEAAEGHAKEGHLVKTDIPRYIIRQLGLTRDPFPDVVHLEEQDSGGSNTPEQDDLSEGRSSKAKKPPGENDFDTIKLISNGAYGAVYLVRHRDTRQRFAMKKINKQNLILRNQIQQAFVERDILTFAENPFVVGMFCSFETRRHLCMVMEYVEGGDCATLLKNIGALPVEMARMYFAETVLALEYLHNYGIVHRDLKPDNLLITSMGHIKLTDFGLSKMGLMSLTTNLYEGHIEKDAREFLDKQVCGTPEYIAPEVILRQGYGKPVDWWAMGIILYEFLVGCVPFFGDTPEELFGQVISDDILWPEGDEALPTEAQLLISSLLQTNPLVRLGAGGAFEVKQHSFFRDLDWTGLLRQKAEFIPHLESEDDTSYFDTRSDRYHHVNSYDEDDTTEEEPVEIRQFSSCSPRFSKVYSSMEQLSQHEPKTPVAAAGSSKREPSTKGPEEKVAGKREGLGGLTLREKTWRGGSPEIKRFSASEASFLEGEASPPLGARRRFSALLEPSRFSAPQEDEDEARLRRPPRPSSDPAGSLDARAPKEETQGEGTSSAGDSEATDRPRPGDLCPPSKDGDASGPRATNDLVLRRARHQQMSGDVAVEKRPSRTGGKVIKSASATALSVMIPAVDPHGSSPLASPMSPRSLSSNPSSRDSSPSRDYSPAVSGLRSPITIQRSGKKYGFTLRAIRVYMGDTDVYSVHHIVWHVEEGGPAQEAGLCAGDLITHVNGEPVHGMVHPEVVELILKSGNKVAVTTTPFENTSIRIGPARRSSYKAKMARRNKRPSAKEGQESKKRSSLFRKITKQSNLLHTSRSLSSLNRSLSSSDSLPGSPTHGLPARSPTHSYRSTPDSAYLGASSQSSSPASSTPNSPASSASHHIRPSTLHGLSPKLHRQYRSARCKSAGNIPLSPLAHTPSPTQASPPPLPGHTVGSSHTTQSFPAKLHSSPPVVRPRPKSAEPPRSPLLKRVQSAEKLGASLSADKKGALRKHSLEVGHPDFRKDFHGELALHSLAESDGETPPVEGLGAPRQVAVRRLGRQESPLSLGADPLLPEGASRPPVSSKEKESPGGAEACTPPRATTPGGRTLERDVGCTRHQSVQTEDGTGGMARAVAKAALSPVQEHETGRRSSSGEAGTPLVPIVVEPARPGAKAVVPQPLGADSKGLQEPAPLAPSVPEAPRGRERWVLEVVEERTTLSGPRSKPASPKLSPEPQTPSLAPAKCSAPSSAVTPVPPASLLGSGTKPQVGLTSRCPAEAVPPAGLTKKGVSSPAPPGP
Sequence of LATS1 (O95835 whole entry): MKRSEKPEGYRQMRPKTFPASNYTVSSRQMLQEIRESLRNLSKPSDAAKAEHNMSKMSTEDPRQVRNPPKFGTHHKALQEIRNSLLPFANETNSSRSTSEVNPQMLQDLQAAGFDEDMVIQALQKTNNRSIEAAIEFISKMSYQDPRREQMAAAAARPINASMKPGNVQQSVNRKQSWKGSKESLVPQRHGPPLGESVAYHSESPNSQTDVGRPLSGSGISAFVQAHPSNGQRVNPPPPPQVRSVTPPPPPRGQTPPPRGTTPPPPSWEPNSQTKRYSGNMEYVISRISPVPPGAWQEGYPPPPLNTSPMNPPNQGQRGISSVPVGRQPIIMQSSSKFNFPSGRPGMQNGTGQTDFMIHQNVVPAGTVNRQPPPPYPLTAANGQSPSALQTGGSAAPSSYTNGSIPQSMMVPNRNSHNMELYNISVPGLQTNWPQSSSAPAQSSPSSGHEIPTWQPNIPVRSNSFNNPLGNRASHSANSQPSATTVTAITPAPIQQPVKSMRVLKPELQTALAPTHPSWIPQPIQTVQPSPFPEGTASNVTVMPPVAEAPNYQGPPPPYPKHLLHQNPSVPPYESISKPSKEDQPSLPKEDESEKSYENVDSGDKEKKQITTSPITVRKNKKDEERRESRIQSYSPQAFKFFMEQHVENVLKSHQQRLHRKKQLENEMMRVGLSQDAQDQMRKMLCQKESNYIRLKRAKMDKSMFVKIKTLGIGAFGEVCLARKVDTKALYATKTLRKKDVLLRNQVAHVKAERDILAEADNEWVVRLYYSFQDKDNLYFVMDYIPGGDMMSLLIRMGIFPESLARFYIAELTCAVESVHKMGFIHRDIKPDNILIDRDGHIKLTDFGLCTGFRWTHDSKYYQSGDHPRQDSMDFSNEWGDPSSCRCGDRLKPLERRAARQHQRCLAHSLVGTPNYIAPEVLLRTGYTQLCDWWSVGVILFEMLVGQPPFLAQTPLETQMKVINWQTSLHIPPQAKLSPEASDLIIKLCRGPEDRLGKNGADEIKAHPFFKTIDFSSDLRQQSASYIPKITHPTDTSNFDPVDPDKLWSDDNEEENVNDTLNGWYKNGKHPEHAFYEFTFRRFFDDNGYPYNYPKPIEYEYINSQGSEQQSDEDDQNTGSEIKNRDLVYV

As for `Cc1ccc(NC(=O)c2cccc(C(F)(F)F)c2)cc1Nc1cc(-c2cccnc2)nc2[nH]ccc12` [HZX-02-059], the remaining binding at 1 µM in [1] turned out to be 100%; in test [2], 17%; in test [3] it was 30%; in [4] it was 87%; in test [5], 95%; in [6], 96%. The remaining binding at 1 µM is 75% in test [7]; 100% in test [8]; 66% in [9]; 79% in test [10]; 100% in test [11]; 100% in test [12]. The remaining binding at 1 µM was 93% in [13]; 100% in [14]; 98% in test [15]; 99% in [16]; 97% in test [17]; 96% in test [18]. Moreover, the remaining binding at 1 µM in test [19] was found to be 100%; in test [20], 97%; in [21] it was 95%; in test [22], 94%; in test [23], 95%.
